Assay results reported in ChEMBL document CHEMBL1201862, “PubChem BioAssay data set” (2004).
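Compound exposure: 48 hours, 5 concentrations, 96-well plates. At the GI50, growth is halved.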 The source made the active and inactive calls. No stated cut-off is given here; in the data, active = GI50 up to about 1.1 µM and inactive = higher.

How the values were obtained:
Experiment in all cases: NCI-60 cell line screen, 48 h
[1] = tested on: SK-MEL-28
[2] = tested on: OVCAR-3
[3] = tested on: MDA-MB-231
[4] = tested on: SNB-19
[5] = tested on: ACHN
[6] = tested on: NCI/ADR-RES
[7] = tested on: OVCAR-5
[8] = tested on: HOP-92
[9] = tested on: HL-60
[10] = tested on: NCI-H226
[11] = tested on: 786-0
[12] = tested on: SK-MEL-2
[13] = tested on: HOP-62
[14] = tested on: UACC-62
[15] = tested on: MOLT-4
[16] = tested on: KM12
[17] = tested on: MDA-N
[18] = tested on: NCI-H460
[19] = tested on: K562
[20] = tested on: DMS-114

| SMILES | GI50 [1] | GI50 [2] | GI50 [3] | GI50 [4] | GI50 [5] | GI50 [6] | GI50 [7] | GI50 [8] | GI50 [9] | GI50 [10] | GI50 [11] | GI50 [12] | GI50 [13] | GI50 [14] | GI50 [15] | GI50 [16] | GI50 [17] | GI50 [18] | GI50 [19] | GI50 [20] |
| --- | --- | --- | --- | --- | --- | --- | --- | --- | --- | --- | --- | --- | --- | --- | --- | --- | --- | --- | --- | --- |
| O=Cc1c2c(cc3c1CC1(C3)Cc3cc4c(c(C=O)c3C1)CCCC4)CCCC2 | > 100 µM (inactive) | > 31.6 µM (inactive) | 27.6 µM (inactive) | 98.9 µM (inactive) | 22.9 µM (inactive) | > 31.6 µM (inactive) | > 31.6 µM (inactive) | 15.5 µM (inactive) | 56.1 µM (inactive) | > 31.6 µM (inactive) | > 31.6 µM (inactive) | > 10 µM (inactive) | > 31.6 µM (inactive) | > 31.6 µM (inactive) | 13.3 µM (inactive) | 21.6 µM (inactive) | > 31.6 µM (inactive) | 52.2 µM (inactive) | 21.1 µM (inactive) | – |
| NC(=O)N/N=C\c1ccccc1OCc1cccc(COc2ccccc2/C=N\NC(N)=O)n1 | > 100 µM (inactive) | > 100 µM (inactive) | 14.6 µM (inactive) | 30.8 µM (inactive) | 26.2 µM (inactive) | 57.4 µM (inactive) | 41.2 µM (inactive) | 27.2 µM (inactive) | > 100 µM (inactive) | 73.6 µM (inactive) | 20.5 µM (inactive) | 28.8 µM (inactive) | 12.4 µM (inactive) | 19.1 µM (inactive) | > 100 µM (inactive) | > 100 µM (inactive) | > 100 µM (inactive) | > 100 µM (inactive) | > 100 µM (inactive) | – |
| N#Cc1c(O)c(/N=N/c2ccc(Cl)cc2)c(=O)n2c1[nH]c1ccccc12 | 45.2 µM (inactive) | 26.4 µM (inactive) | 29.3 µM (inactive) | 47.3 µM (inactive) | 36.1 µM (inactive) | 44 µM (inactive) | 62.2 µM (inactive) | 26.1 µM (inactive) | 55.5 µM (inactive) | 81.8 µM (inactive) | 48.6 µM (inactive) | 45.8 µM (inactive) | 17.5 µM (inactive) | 29.7 µM (inactive) | 29.6 µM (inactive) | 47 µM (inactive) | 38.7 µM (inactive) | 45.6 µM (inactive) | 32.6 µM (inactive) | – |
| COc1cc2c(c3oc(-c4ccc5c(c4)OCO5)c(O)c(=O)c13)CCC(C)(C)O2 | > 100 µM (inactive) | > 100 µM (inactive) | – | > 100 µM (inactive) | – | – | – | – | > 100 µM (inactive) | > 100 µM (inactive) | > 100 µM (inactive) | > 100 µM (inactive) | – | > 100 µM (inactive) | > 100 µM (inactive) | > 100 µM (inactive) | – | – | > 100 µM (inactive) | > 100 µM (inactive) |
| CCOC(=O)Oc1ccc2[nH]c3c(C)cc(N)c(C)c3c2c1 | > 100 µM (inactive) | > 100 µM (inactive) | – | > 100 µM (inactive) | > 100 µM (inactive) | – | > 100 µM (inactive) | – | 55.5 µM (inactive) | > 100 µM (inactive) | > 100 µM (inactive) | > 100 µM (inactive) | > 100 µM (inactive) | – | 78.9 µM (inactive) | 68.4 µM (inactive) | – | > 100 µM (inactive) | > 100 µM (inactive) | 46.7 µM (inactive) |
| O=C(/C=C/c1ccc([N+](=O)[O-])cc1)c1nc2ccccc2[nH]1 | > 100 µM (inactive) | 9.44 µM (inactive) | 26.9 µM (inactive) | > 93.3 µM (inactive) | 74.3 µM (inactive) | > 48.2 µM (inactive) | 3.54 µM (inactive) | 45.5 µM (inactive) | 5.2 µM (inactive) | 1.05 µM (active) | 27.4 µM (inactive) | > 77.8 µM (inactive) | > 34.2 µM (inactive) | 5.89 µM (inactive) | 25.2 µM (inactive) | 29.9 µM (inactive) | 72.1 µM (inactive) | 11.4 µM (inactive) | 3.66 µM (inactive) | – |
| NN/C(=N\S(=O)(=O)c1cc2ccccc2o1)Nc1ccc(Cl)cc1 | > 100 µM (inactive) | 36.6 µM (inactive) | 67.9 µM (inactive) | 60.8 µM (inactive) | > 100 µM (inactive) | > 100 µM (inactive) | > 100 µM (inactive) | 20.4 µM (inactive) | > 100 µM (inactive) | > 100 µM (inactive) | 44 µM (inactive) | > 100 µM (inactive) | 48.8 µM (inactive) | > 100 µM (inactive) | > 100 µM (inactive) | > 100 µM (inactive) | > 100 µM (inactive) | > 100 µM (inactive) | > 100 µM (inactive) | – |
| COc1cc(-c2cc(=O)c3cc4c(=O)cc(-c5cc(OC)c(OC)c(OC)c5)oc4cc3o2)cc(OC)c1OC | > 100 µM (inactive) | > 87.1 µM (inactive) | > 39 µM (inactive) | 16.4 µM (inactive) | 25.1 µM (inactive) | 65.9 µM (inactive) | > 100 µM (inactive) | 14.6 µM (inactive) | > 100 µM (inactive) | 12.9 µM (inactive) | 14.3 µM (inactive) | 16.7 µM (inactive) | 12.6 µM (inactive) | 13.9 µM (inactive) | > 88.7 µM (inactive) | > 100 µM (inactive) | > 100 µM (inactive) | > 100 µM (inactive) | > 41.9 µM (inactive) | – |
